Experimental data as given in PubChem BioAssay AID248 (DTP/NCI, 2004).
Where “and” joins values, the source holds several entries; their conditions need not be identical. Equal values may be shown once. Inconclusive results and toxic doses are left out.

Test system: L1210 leukemia ip in BDF1 mice, survival T/C
Assay: NCI In Vivo Anticancer Drug Screen. Data for tumor model L1210 Leukemia (intraperitoneal) in B6D2F1 (BDF1) mice
Settings: endpoint: mean survival time, higher = longer survival
In short: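 Ratio derived from survival: compound-dosed mice over vehicle-dosed mice, all bearing a transplantable tumor.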

[1] = dose: 100.0 mg/kg/injection, schedule: Q01DX009 (ip), vehicle: saline
[2] = dose: 100.0 mg/kg/injection, schedule: Q04DX003 (ip), vehicle: saline
[3] = dose: 200.0 mg/kg/injection, schedule: Q01DX009 (ip), vehicle: saline
[4] = dose: 200.0 mg/kg/injection, schedule: Q04DX003 (ip), vehicle: saline
[5] = dose: 400.0 mg/kg/injection, schedule: Q04DX003 (ip), vehicle: saline
[6] = dose: 100.0 mg/kg/injection, schedule: Q01DX001 (ip), vehicle: saline
[7] = dose: 100.0 mg/kg/injection, schedule: Q01DX001 (ip), vehicle: saline with Tween-80
[8] = dose: 200.0 mg/kg/injection, schedule: Q01DX001 (ip), vehicle: saline with Tween-80
[9] = dose: 25.0 mg/kg/injection, schedule: Q01DX009 (ip), vehicle: saline
[10] = dose: 50.0 mg/kg/injection, schedule: Q01DX009 (ip), vehicle: saline
[11] = dose: 12.5 mg/kg/injection, schedule: Q04DX003 (ip), vehicle: saline
[12] = dose: 25.0 mg/kg/injection, schedule: Q04DX003 (ip), vehicle: saline
[13] = dose: 50.0 mg/kg/injection, schedule: Q04DX003 (ip), vehicle: saline
[14] = dose: 100.0 mg/kg/injection, schedule: Q04DX003 (ip), vehicle: Klucel (hydroxypropylcellulose) (HPC)
[15] = dose: 200.0 mg/kg/injection, schedule: Q04DX003 (ip), vehicle: Klucel (hydroxypropylcellulose) (HPC)
[16] = dose: 400.0 mg/kg/injection, schedule: Q04DX003 (ip), vehicle: Klucel (hydroxypropylcellulose) (HPC)
[17] = dose: 50.0 mg/kg/injection, schedule: Q01DX009 (ip), vehicle: Klucel (hydroxypropylcellulose) (HPC)
[18] = dose: 100.0 mg/kg/injection, schedule: Q01DX009 (ip), vehicle: Klucel (hydroxypropylcellulose) (HPC)
[19] = dose: 200.0 mg/kg/injection, schedule: Q01DX009 (ip), vehicle: Klucel (hydroxypropylcellulose) (HPC)
[20] = dose: 50.0 mg/kg/injection, schedule: Q01DX009 (ip), vehicle: saline with Tween-80
[21] = dose: 100.0 mg/kg/injection, schedule: Q01DX009 (ip), vehicle: saline with Tween-80
[22] = dose: 100.0 mg/kg/injection, schedule: Q04DX003 (ip), vehicle: saline with Tween-80
[23] = dose: 200.0 mg/kg/injection, schedule: Q01DX009 (ip), vehicle: saline with Tween-80
[24] = dose: 200.0 mg/kg/injection, schedule: Q04DX003 (ip), vehicle: saline with Tween-80
[25] = dose: 400.0 mg/kg/injection, schedule: Q04DX003 (ip), vehicle: saline with Tween-80
[26] = dose: 400.0 mg/kg/injection, schedule: Q04DX002 (ip), vehicle: saline with Tween-80

COC(=O)C1CCN1C(C)(C)C (stereo not drawn)
T/C [1]: 95 % of control
T/C [2]: 111 % of control
T/C [3]: 95 % of control
T/C [4]: 105 % of control
T/C (dose: 400.0 mg/kg/injection, schedule: Q01DX009 (ip), vehicle: saline): 103 % of control
T/C [5]: 110 % of control

C1=CC2CCC1CC2c1ccccc1 (stereo not drawn)
T/C [6]: 104 % of control
T/C (dose: 200.0 mg/kg/injection, schedule: Q01DX001 (ip), vehicle: saline): 105 % of control
T/C (dose: 400.0 mg/kg/injection, schedule: Q01DX001 (ip), vehicle: saline): 114 % of control

O=C(CCl)N1CCN(C(=O)CCl)CC1
T/C (dose: 10.0 mg/kg/injection, schedule: Q01DX009 (ip), vehicle: Klucel (hydroxypropylcellulose) (HPC)): 110 % of control
T/C (dose: 20.0 mg/kg/injection, schedule: Q01DX009 (ip), vehicle: Klucel (hydroxypropylcellulose) (HPC)): 101 % of control
T/C (dose: 20.0 mg/kg/injection, schedule: Q04DX003 (ip), vehicle: Klucel (hydroxypropylcellulose) (HPC)): 104 % of control
T/C (dose: 40.0 mg/kg/injection, schedule: Q04DX003 (ip), vehicle: Klucel (hydroxypropylcellulose) (HPC)): 106 % of control

COC(=O)CCN1C(=O)c2ccccc2C1=O
T/C [7]: 110 % of control
T/C [8]: 102 % of control

CCN(CC)c1cc(C(C)(C)C)cc(C(C)(C)C)c1
T/C (dose: 100.0 mg/kg/injection, schedule: Q04DX003 (ip), vehicle: saline sonified): 114 % of control
T/C (dose: 200.0 mg/kg/injection, schedule: Q04DX003 (ip), vehicle: saline sonified): 94 % of control
T/C (dose: 400.0 mg/kg/injection, schedule: Q04DX003 (ip), vehicle: saline sonified): 101 % of control

NOCc1cccc2cccnc12
T/C [9]: 100 % of control
T/C [10]: 100 % of control
T/C [1]: 97 % of control
T/C [2]: 89 % of control
T/C [4]: 94 % of control
T/C [5]: 96 % of control

O=C(CCc1ccccc1)NC1CCCCC1
T/C (dose: 12.5 mg/kg/injection, schedule: Q01DX001 (ip), vehicle: Klucel (hydroxypropylcellulose) (HPC)): 104 % of control
T/C [11]: 88 % of control
T/C (dose: 25.0 mg/kg/injection, schedule: Q01DX001 (ip), vehicle: Klucel (hydroxypropylcellulose) (HPC)): 104 % of control
T/C [12]: 88 % of control
T/C (dose: 50.0 mg/kg/injection, schedule: Q01DX001 (ip), vehicle: Klucel (hydroxypropylcellulose) (HPC)): 98 % of control
T/C [13]: 93 % of control

CN(C)c1ccc(C2SCSCS2)cc1
T/C [14]: 97 % of control
T/C [15]: 101 % of control
T/C [16]: 95 % of control

O=[N+]([O-])c1cc(Cl)ccc1S(=O)(=O)c1ccccc1
T/C [17]: 99 % of control
T/C [18]: 99 % of control
T/C [19]: 108 % of control

O=[N+]([O-])c1ccc2c(c1)c(-c1cc(Cl)cc(Cl)c1)nc1ccccc12
T/C [20]: 104 % of control
T/C [21]: 103 % of control
T/C [22]: 93 % of control
T/C [23]: 106 % of control
T/C [24]: 90 % of control
T/C [25]: 93 % of control

NCCC(c1ccccc1)c1ccccc1
T/C (dose: 75.0 mg/kg/injection, schedule: Q01DX001 (ip), vehicle: carboxymethylcellulose (CMC)): 104 % of control

COc1cc(C(=O)OC(C)CN2CCN(C(=O)c3cc(OC)c(OC)c(OC)c3)CC2)cc(OC)c1OC (stereo not drawn)
T/C [9]: 108 % of control
T/C [12]: 98 % of control
T/C [10]: 101 % of control
T/C [13]: 95 % of control
T/C [1]: 104 % of control
T/C [2]: 102 % of control
T/C [3]: 98 % of control
T/C [4]: 102 % of control
T/C [5]: 109 % of control

CCCCC(=O)c1ccc(Cl)cc1
T/C [14]: 103 % of control
T/C [15]: 111 % of control
T/C [16]: 104 % of control

CCOC(=O)CC(=O)c1ccc(C(=O)CC(=O)O)cc1 (tested in a mixture with another compound)
T/C (dose: 25.6 mg/kg/injection, schedule: Q04DX002 (ip), vehicle: saline with Tween-80): 87 % of control
T/C [20]: 89 % of control
T/C (dose: 64.0 mg/kg/injection, schedule: Q04DX002 (ip), vehicle: saline with Tween-80): 95 % of control
T/C [21]: 96 % of control
T/C [22]: 90 % of control
T/C (dose: 160.0 mg/kg/injection, schedule: Q04DX002 (ip), vehicle: saline with Tween-80): 91 % of control
T/C [23]: 88 % of control
T/C [24]: 87 % of control
T/C [26]: 87 % of control

C=CCNC(=S)Nc1cccc(C(C)OC(=O)NC(C)(C)C)c1 (stereo not drawn)
T/C [21]: 106 % of control
T/C [22]: 95 % of control
T/C [23]: 107 % of control
T/C [24]: 93 % of control
T/C [25]: 94 % of control

NCCCC1C(CN)C2CC1C1C3CCC(C3)C21 (stereo not drawn)
T/C (dose: 3.12 mg/kg/injection, schedule: Q04DX003 (ip), vehicle: saline): 100 % of control
T/C (dose: 6.25 mg/kg/injection, schedule: Q04DX003 (ip), vehicle: saline): 100 % of control
T/C (dose: 12.5 mg/kg/injection, schedule: Q01DX009 (ip), vehicle: saline): 106 % of control
T/C [11]: 97 % of control
T/C [9]: 110 % of control
T/C [12]: 97 % of control and 103 % of control
T/C [10]: 106 % of control
T/C [13]: 105 % of control
T/C [2]: 98 % of control

O=c1[nH]c(=O)n(CCCc2ccccc2)cc1-c1ccccc1
T/C (dose: 400.0 mg/kg/injection, schedule: Q01DX001 (ip), vehicle: carboxymethylcellulose (CMC)): 90 % of control

CC1(c2cccc3ccccc23)NC(=O)c2ccccc2N1 (stereo not drawn)
T/C [17]: 98 % of control
T/C [18]: 103 % of control
T/C (dose: 150.0 mg/kg/injection, schedule: Q01DX009 (ip), vehicle: Klucel (hydroxypropylcellulose) (HPC)): 101 % of control

COc1ccc(C)cc1NC(=S)NC(=O)c1cccc([N+](=O)[O-])c1
T/C [7]: 93 % of control
T/C [21]: 100 % of control and 89 % of control
T/C (dose: 100.0 mg/kg/injection, schedule: Q04DX002 (ip), vehicle: saline with Tween-80): 87 % of control
T/C [22]: 101 % of control
T/C [8]: 89 % of control
T/C [23]: 96 % of control and 97 % of control
T/C (dose: 200.0 mg/kg/injection, schedule: Q04DX002 (ip), vehicle: saline with Tween-80): 97 % of control
T/C [24]: 93 % of control
T/C (dose: 400.0 mg/kg/injection, schedule: Q01DX009 (ip), vehicle: saline with Tween-80): 92 % of control and 101 % of control
T/C [26]: 90 % of control
T/C [25]: 88 % of control

Nc1ncn(C2CC(O)C(CO)O2)c(=O)n1 (stereo not drawn)
T/C (dose: 0.05 mg/kg/injection, schedule: Q01DX005 (ip), vehicle: saline): 155 % of control
T/C (dose: 0.12 mg/kg/injection, schedule: Q01DX005 (ip), vehicle: saline): 154 % of control
T/C (dose: 0.78 mg/kg/injection, schedule: Q01DX005 (ip), vehicle: saline): 94 % of control
T/C (dose: 1.56 mg/kg/injection, schedule: Q01DX005 (ip), vehicle: saline): 98 % of control
T/C (dose: 1.56 mg/kg/injection, schedule: Q01DX009 (ip), vehicle: saline): 114 % of control
T/C (dose: 3.12 mg/kg/injection, schedule: Q01DX005 (ip), vehicle: saline): 100 % of control
T/C (dose: 3.12 mg/kg/injection, schedule: Q01DX009 (ip), vehicle: saline): 100 % of control
T/C (dose: 6.25 mg/kg/injection, schedule: Q01DX009 (ip), vehicle: saline): 86 % of control
T/C [6]: 171 % of control
T/C (dose: 100.0 mg/kg/injection, schedule: Q01DX005 (ip), vehicle: saline): 167 % of control and 174 % of control
T/C (dose: 200.0 mg/kg/injection, schedule: Q01DX005 (ip), vehicle: saline): 174 % of control and 198 % of control
T/C (dose: 300.0 mg/kg/injection, schedule: Q04DX003 (ip), vehicle: saline): 167 % of control

CN(C)c1ccc(C=O)c([N+](=O)[O-])c1
T/C [18]: 97 % of control
T/C [19]: 101 % of control
T/C (dose: 400.0 mg/kg/injection, schedule: Q01DX009 (ip), vehicle: Klucel (hydroxypropylcellulose) (HPC)): 105 % of control
